Results on 13 compounds are retold here after patent US9315491B2 (DEVELOPMENT CENTER FOR BIOTECHNOLOGY, priority 2009, dated 2016).

What is called inhibition is the drop in the measured response relative to a control, in per cent.

Chain of PI3K (p110α/p85α) (P42336 whole entry, species assumed): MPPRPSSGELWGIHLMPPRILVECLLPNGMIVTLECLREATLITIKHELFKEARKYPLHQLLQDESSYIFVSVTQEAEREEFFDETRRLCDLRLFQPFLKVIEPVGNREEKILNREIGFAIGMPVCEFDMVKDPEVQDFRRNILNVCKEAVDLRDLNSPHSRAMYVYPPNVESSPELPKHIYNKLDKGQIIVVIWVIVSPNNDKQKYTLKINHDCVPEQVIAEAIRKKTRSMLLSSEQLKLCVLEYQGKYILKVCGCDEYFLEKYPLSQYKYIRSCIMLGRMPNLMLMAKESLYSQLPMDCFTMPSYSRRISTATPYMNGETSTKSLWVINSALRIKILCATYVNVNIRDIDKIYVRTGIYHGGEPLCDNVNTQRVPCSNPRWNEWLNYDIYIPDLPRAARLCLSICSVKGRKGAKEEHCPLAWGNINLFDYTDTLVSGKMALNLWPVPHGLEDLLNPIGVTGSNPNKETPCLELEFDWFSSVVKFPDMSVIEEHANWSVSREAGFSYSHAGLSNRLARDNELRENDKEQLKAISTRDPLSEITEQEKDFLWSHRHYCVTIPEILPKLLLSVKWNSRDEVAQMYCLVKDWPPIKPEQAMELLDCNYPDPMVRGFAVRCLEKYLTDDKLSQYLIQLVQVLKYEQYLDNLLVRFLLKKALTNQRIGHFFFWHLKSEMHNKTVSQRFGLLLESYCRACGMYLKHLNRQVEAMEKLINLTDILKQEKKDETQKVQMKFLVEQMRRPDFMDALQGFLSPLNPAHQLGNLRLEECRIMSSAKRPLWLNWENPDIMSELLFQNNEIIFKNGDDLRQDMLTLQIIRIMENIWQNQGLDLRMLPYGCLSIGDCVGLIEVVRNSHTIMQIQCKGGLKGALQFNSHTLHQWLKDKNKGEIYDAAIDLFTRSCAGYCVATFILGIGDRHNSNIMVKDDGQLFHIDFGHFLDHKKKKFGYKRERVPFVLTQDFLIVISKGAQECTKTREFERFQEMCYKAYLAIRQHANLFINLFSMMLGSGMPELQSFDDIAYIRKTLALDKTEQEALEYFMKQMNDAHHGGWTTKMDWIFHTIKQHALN
Chain of PI3K (p110α/p85α) (P27986 whole entry partner, species assumed): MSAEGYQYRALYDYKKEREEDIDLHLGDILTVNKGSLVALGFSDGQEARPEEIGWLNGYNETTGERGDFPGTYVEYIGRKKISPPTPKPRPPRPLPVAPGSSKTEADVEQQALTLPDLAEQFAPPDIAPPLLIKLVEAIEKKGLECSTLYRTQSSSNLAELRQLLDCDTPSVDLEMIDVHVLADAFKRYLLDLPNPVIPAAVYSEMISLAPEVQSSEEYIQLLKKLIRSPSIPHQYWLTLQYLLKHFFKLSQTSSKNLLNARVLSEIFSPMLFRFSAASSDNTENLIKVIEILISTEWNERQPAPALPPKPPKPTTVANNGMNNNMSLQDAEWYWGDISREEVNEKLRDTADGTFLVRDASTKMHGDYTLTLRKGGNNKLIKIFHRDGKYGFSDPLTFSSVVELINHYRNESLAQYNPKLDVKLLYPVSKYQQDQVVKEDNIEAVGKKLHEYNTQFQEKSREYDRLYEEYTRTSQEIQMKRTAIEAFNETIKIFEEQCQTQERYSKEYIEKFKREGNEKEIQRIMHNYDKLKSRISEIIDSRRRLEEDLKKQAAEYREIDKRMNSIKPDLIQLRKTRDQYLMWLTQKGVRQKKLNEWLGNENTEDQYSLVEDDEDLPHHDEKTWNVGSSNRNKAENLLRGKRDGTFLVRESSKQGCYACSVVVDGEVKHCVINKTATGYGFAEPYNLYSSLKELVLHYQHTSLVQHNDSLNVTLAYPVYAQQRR

The target of this assay is PI3K (p110α/p85α) (Homo sapiens (Human), UniProt P42336). The experiment in a line: PI3K HTRF enzyme assay, p110α/p85α. It counts as biochemical. As to conditions: read-out: % inhibition @ 500 nM p110α; compound at 500 nM, 10 μM ATP. As to the method:
Recombinant PI3K (p110α/p85α) and PI3K (p110β/p85α) were from Millipore. […] Briefly, the compounds of interest dissolved in 100% DMSO were dispensed in all wells, following which the mixture of PIP2 and enzyme was added. PI3K (p110α/p85α) and PI3K (p110β/p85α) enzyme reactions were initiated in the presence of 10 μM and 100 μM ATP, respectively, and incubated for 30 min at room temperature. STOP solution prepared 2 hours prior to use was added to stop reactions, and mixed well. Detection solution prepared 2 hours prior to use was added, and incubated at room temperature for 17 hours in the dark. […] HTRF ration was calculated as follows: […]
Background: TR-FRET usually uses a lanthanide donor and a delayed reading to cut background.
Consider `CSc1c(Cl)nc(-c2ccc(NC(=O)Nc3cccnc3)cc2)nc1N1CCOCC1` [MTR-0197, 1-[4-(4-Chloro-5-methylsulfanyl-6-morpholin-4-yl-pyrimidin-2-yl)-phenyl]-3-pyridin-3-yl-urea], for which the inhibition at 0.5 µM stood at 59.8%.

With `CSc1cnc(-c2ccc(NC(=O)Nc3ccc(N4CCOCC4)cc3)cc2)nc1N1CCOCC1` [MTR-0248, 1-[4-(5-Methylsulfanyl-4-morpholin-4-yl-pyrimidin-2-yl)-phenyl]-3-(4-morpholin-4-yl-phenyl)-urea], the inhibition at 0.5 µM is 45.8%. As to `CCOc1cnc(-c2ccc(NC(=O)Nc3ccc(S(N)(=O)=O)cc3)cc2)nc1N1CCOCC1` [MTR-0326, 4-{3-[4-(5-Ethoxy-4-morpholin-4-yl-pyrimidin-2-yl)-phenyl]-ureido}-benzenesulfonamide], the inhibition at 0.5 µM turned out to be 90.7%. To `CCOc1cnc(-c2ccc(NC(=O)Nc3ccc(N4CCOCC4=O)cc3)cc2)nc1N1CCOCC1` [MTR-0325, 1-[4-(5-Ethoxy-4-morpholin-4-yl-pyrimidin-2-yl)-phenyl]-3-[4-(3-oxo-morpholin-4-yl)-phenyl]-urea] belongs 91.5%. `CCOc1cnc(-c2ccc(NC(=O)Nc3ccc(N4CCN(S(C)(=O)=O)CC4)cc3)cc2)nc1N1CCOCC1` [MTR-0420, 1-[4-(5-Ethoxy-4-morpholin-4-yl-pyrimidin-2-yl)-phenyl]-3-[4-(4-methanesulfonyl-piperazin-1-yl)-phenyl]-urea]: the inhibition at 0.5 µM amounted to 58.6%. The figure for `COc1cnc(-c2ccc(NC(=O)Nc3ccc(C(=O)O)cc3)cc2)nc1N1CCOCC1` [MTR-0351, 4-{3-[4-(5-Methoxy-4-morpholin-4-yl-pyrimidin-2-yl)-phenyl]-ureido}-benzoic acid] is 52.3%; for `CSc1c(Cl)nc(-c2ccc(NC(=O)Nc3ccc(C(=O)N4CCN(C)CC4)cc3)cc2)nc1N1CCOCC1` [MTR-0271, 1-[4-(4-Chloro-5-methylsulfanyl-6-morpholin-4-yl-pyrimidin-2-yl)-phenyl]-3-[4-(4-methyl-piperazine-1-carbonyl)-phenyl]-urea] it is 94.5%; for `CSc1c(Cl)nc(-c2ccc(NC(=O)Nc3ccc(C(=O)N4CCOCC4)cc3)cc2)nc1N1CCOCC1` [MTR-0308, 1-[4-(4-Chloro-5-methylsulfanyl-6-morpholin-4-yl-pyrimidin-2-yl)-phenyl]-3-[4-(morpholine-4-carbonyl)-phenyl]-urea] it is 106%. To `CSc1c(Cl)nc(-c2ccc(NC(=O)Nc3ccc(C(N)=O)cc3)cc2)nc1N1CCOCC1` [MTR-0257, 4-{3-[4-(4-Chloro-5-methylsulfanyl-6-morpholin-4-yl-pyrimidin-2-yl)-phenyl]-ureido}-benzamide] belongs 95.5%; to `COc1cnc(-c2ccc(NC(=O)Nc3ccc(S(N)(=O)=O)cc3)cc2)nc1N1CCOCC1` [MTR-0283, 4-{3-[4-(5-Methoxy-4-morpholin-4-yl-pyrimidin-2-yl)-phenyl]-ureido}-benzenesulfonamide], 72.9%. For the compound `CCOc1c(C(=O)N2CCOCC2)nc(-c2ccc(NC(=O)Nc3ccccc3)cc2)nc1N1CCOCC1` [MTR-0124, 1-{4-[5-Ethoxy-4-(morpholine-4-carbonyl)-6-morpholin-4-yl-pyrimidin-2-yl]-phenyl}-3-phenyl-urea], the inhibition at 0.5 µM was 49.1%. To `CSc1cnc(-c2ccc(NC(=O)Nc3ccc(S(N)(=O)=O)cc3)cc2)nc1N1CCOCC1` [MTR-0288, 4-{3-[4-(5-Methylsulfanyl-4-morpholin-4-yl-pyrimidin-2-yl)-phenyl]-ureido}-benzenesulfonamide] belongs 79.2%; to `CCOc1cnc(-c2ccc(NC(=O)Nc3ccc(C(=O)N4CCOCC4)cc3)cc2)nc1N1CCOCC1` [MTR-0421, 1-[4-(5-Ethoxy-4-morpholin-4-yl-pyrimidin-2-yl)-phenyl]-3-[4-(morpholine-4-carbonyl)-phenyl]-urea], 98.7%.
